This passage reports Ki results from EP2970215B1, “PYRROLIDINE DERIVATIVES, PHARMACEUTICAL COMPOSITIONS CONTAINING THEM, AND THEIR USE IN THERAPY” (AbbVie Deutschland GmbH & Co. KG, priority 2013, dated 2014).

In the experiment the target is T1, human GlyT1c transporter (Homo sapiens, UniProt P48067).
T1 construct: expressed in transfected cells; host or cells: CHO cells (recombinant; line hGlyT1c_5_CHO is named for the uptake assay)
T1 sequence (P48067 1-706): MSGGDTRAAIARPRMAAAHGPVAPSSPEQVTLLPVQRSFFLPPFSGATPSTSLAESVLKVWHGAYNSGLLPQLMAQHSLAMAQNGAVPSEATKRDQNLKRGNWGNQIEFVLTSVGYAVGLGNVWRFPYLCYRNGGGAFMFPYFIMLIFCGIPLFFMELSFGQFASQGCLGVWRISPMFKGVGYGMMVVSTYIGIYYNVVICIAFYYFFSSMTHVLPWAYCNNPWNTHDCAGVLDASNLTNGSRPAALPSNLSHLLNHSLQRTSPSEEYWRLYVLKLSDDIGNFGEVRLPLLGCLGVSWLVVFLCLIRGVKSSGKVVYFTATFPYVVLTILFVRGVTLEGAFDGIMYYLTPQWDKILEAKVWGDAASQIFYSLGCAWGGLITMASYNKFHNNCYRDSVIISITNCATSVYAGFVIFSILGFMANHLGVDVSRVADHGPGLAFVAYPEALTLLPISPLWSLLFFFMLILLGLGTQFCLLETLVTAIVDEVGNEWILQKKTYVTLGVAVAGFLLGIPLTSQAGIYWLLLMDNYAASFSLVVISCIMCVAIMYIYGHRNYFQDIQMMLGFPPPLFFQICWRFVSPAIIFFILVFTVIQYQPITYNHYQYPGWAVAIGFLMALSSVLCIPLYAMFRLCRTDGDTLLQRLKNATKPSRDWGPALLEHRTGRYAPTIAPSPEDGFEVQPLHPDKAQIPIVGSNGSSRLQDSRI
The experiment is described as follows: Radioligand binding assay using recombinant CHO cell membranes expressing human GlyT1. The source says: 2. Radioligand binding assays using recombinant CHO cell membranes expressing human GlyT1: […]

Setting [1] is: radioligand binding to human GlyT1c transporter-expressing membranes.
[2] abbreviates: radioligand binding, recombinant CHO cell membranes expressing human GlyT1c.

By Ki is commonly meant a dissociation constant, usually derived from enzyme kinetics or from competition with a known ligand.

In the case of `Cn1cnc(S(=O)(=O)N2C[C@H](Nc3cc(F)ccn3)[C@@H](c3ccc(F)cc3)C2)c1` [Example 736, 4-fluoro-N-{(3R,4S)-4-(4-fluorophenyl)-1-[(1-methyl-1H-imidazol-4-yl)sulfonyl]pyrrolidin-3-yl}pyridin-2-amine], under setting [1], the Ki was no more than 1000 nM.

For `Cc1ccccc1N[C@@H]1CN(S(=O)(=O)c2cn(C)cn2)C[C@H]1c1ccc(F)cc1` (relative stereo) [Example 84, trans-4-(4-fluorophenyl)-1-[(1-methyl-1H-imidazol-4-yl)sulfonyl]-N-(2-methylphenyl)pyrrolidin-3-amine], under setting [1], the Ki is no more than 1000 nM.

For the compound `Cc1nc(S(=O)(=O)N2C[C@H](Nc3cc(C(F)(F)F)c(Cl)cn3)[C@@H](c3ccc(F)cc3)C2)cn1C` [Example 760, 5-chloro-N-[(3R,4S)-1-[(1,2-dimethyl-1H-imidazol-4-yl)sulfonyl]-4-(4-fluorophenyl)pyrrolidin-3-yl]-4-(trifluoromethyl)pyridin-2-amine], under setting [1], the Ki is greater than 10000 nM.

Regarding `Cn1cnc(S(=O)(=O)N2C[C@H](Nc3cnc(N4CCCC4)cn3)[C@@H](c3ccccc3)C2)c1` [Example 413, N-{(3R,4S)-1-[(1-methyl-1H-imidazol-4-yl)sulfonyl]-4-phenylpyrrolidin-3-yl}-5-(pyrrolidin-1-yl)pyrazin-2-amine], the Ki under setting [1] is no more than 10000 nM.

On to “2-[(1-methyl-1H-imidazol-4-yl)sulfonyl]-N-[4-(trifluoromethyl)pyridin-2-yl]-2,3,3a,8-tetrahydroindeno[1,2-c]pyrrol-8a(1H)-amine [Example 892]”, for which the Ki under setting [2] was no more than 100 nM.

Turning to `COC(=O)CCCC(=O)N[C@H]1CN(S(=O)(=O)c2cn(C)cn2)C[C@@H]1c1ccc(F)cc1` [Example 662, methyl 5-({(3R,4S)-4-(4-fluorophenyl)-1-[(1-methyl-1H-imidazol-4-yl)sulfonyl]pyrrolidin-3-yl}amino)-5-oxopentanoate], under setting [1], the Ki was no more than 10000 nM.

Consider `Cn1cnc(S(=O)(=O)N2C[C@@H](Nc3ccc(F)cc3)[C@H](c3ccccc3F)C2)c1` (relative stereo) [Example 200, trans-4-(2-fluorophenyl)-N-(4-fluorophenyl)-1-[(1-methyl-1H-imidazol-4-yl)sulfonyl]pyrrolidin-3-amine], for which, under setting [1], the Ki was no more than 1000 nM.

Take `Cn1cnc(S(=O)(=O)N2C[C@@H](Nc3ccc(F)c(C(F)(F)F)c3)[C@H](C3CCCCO3)C2)c1` (relative stereo) [Example 846, Trans-N-[4-fluoro-3-(trifluoromethyl)phenyl]-1-[(1-methyl-1H-imidazol-4-yl)sulfonyl]-4-(tetrahydro-2H-pyran-2-yl)pyrrolidin-3-amine]: the inhibition constant (Ki) under setting [2] was no more than 100 nM.

`Cn1cnc(S(=O)(=O)N2C[C@@H](Nc3ccc(C#N)cc3)[C@H](c3ccccc3)C2)c1` (relative stereo) [Example 52, 4-({trans-1-[(1-methyl-1H-imidazol-4-yl)sulfonyl]-4-phenylpyrrolidin-3-yl}amino)benzonitrile]: the Ki under setting [1] was no more than 10000 nM.

Turning to `Cn1cnc(S(=O)(=O)N2C[C@@H](Nc3cc(C#N)ccc3Cl)[C@H](c3ccccc3)C2)c1` (relative stereo) [Example 81, 4-chloro-3-({trans-1-[(1-methyl-1H-imidazol-4-yl)sulfonyl]-4-phenylpyrrolidin-3-yl}amino)benzonitrile], the Ki under setting [1] is no more than 10000 nM.

`Cn1cnc(S(=O)(=O)N2C[C@@H](Nc3cc(C(F)(F)F)c(Cl)cn3)[C@H](C3CCCO3)C2)c1` (relative stereo) [Example 844, 5-Chloro-N-[trans-1-[(1-methyl-1H-imidazol-4-yl)sulfonyl]-4-(tetrahydrofuran-2-yl)pyrrolidin-3-yl]-4-(trifluoromethyl)pyridin-2-amine]: the Ki under setting [2] is no more than 1000 nM.

Take `Cn1cnc(S(=O)(=O)N2C[C@@H](Nc3ccccc3F)[C@H](c3ccc(F)cc3)C2)c1` (relative stereo) [Example 90, trans-N-(2-fluorophenyl)-4-(4-fluorophenyl)-1-[(1-methyl-1H-imidazol-4-yl)sulfonyl]pyrrolidin-3-amine]: the Ki under setting [1] is no more than 1000 nM.

Regarding `CCS(=O)(=O)N1C[C@@H](NC(=O)c2cccc(C(F)(F)F)c2Cl)[C@H](c2ccccc2)C1` (relative stereo) [Example 124, 2-chloro-N-[trans-1-(ethylsulfonyl)-4-phenylpyrrolidin-3-yl]-3-(trifluoromethyl)benzamide], the Ki under setting [1] was no more than 10000 nM.

As for `Cn1cnc(S(=O)(=O)N2C[C@H](NCc3scnc3-c3ccccc3)[C@@H](c3ccccc3)C2)c1` [Example 430, (3R,4S)-1-[(1-methyl-1H-imidazol-4-yl)sulfonyl]-4-phenyl-N-[(4-phenyl-1,3-thiazol-5-yl)methyl]pyrrolidin-3-amine], the Ki under setting [1] was greater than 10000 nM.

Regarding `Cn1cnc(S(=O)(=O)N2C[C@@H](NCc3ccccc3Cl)[C@H](c3ccc(F)cc3)C2)c1` (relative stereo) [Example 260, trans-N-(2-chlorobenzyl)-4-(4-fluorophenyl)-1-[(1-methyl-1H-imidazol-4-yl)sulfonyl]pyrrolidin-3-amine], the Ki under setting [1] was no more than 100 nM.

`Cn1cnc(S(=O)(=O)N2C[C@H](NC(=O)Nc3ccccc3F)[C@@H](c3ccc(F)cc3)C2)c1` [Example 702, 1-(2-fluorophenyl)-3-{(3R,4S)-4-(4-fluorophenyl)-1-[(1-methyl-1H-imidazol-4-yl)sulfonyl]pyrrolidin-3-yl}urea]: under setting [1], the Ki is no more than 10000 nM.

Turning to `Cn1cnc(S(=O)(=O)N2C[C@@H](Nc3cccc(C(C)(C)C)c3)[C@H](c3ccc(F)cc3)C2)c1` (relative stereo) [Example 171, trans-N-(3-tert-butylphenyl)-4-(4-fluorophenyl)-1-[(1-methyl-1H-imidazol-4-yl)sulfonyl]pyrrolidin-3-amine], the Ki under setting [1] is no more than 100 nM.

On to `CC(C)c1ccnc(N[C@H]2CN(S(=O)(=O)c3cn(C)cn3)C[C@@H]2c2ccccc2)c1` [Example 813, N-{(3R,4S)-1-[(1-methyl-1H-imidazol-4-yl)sulfonyl]-4-phenylpyrrolidin-3-yl}-4-(propan-2-yl)pyridin-2-amine], for which the Ki under setting [2] is no more than 100 nM.

Take `Cn1cnc(S(=O)(=O)N2C[C@@H](Nc3ccc(F)c(Cl)c3)[C@H](c3ccc(F)cc3)C2)c1` [Example 387, (3S,4R)-N-(3-chloro-4-fluorophenyl)-4-(4-fluorophenyl)-1-[(1-methyl-1H-imidazol-4-yl)sulfonyl]pyrrolidin-3-amine]: under setting [1], the Ki is no more than 10000 nM.

For `Cc1ncsc1CN[C@H]1CN(S(=O)(=O)c2cn(C)cn2)C[C@@H]1c1ccccc1` [Example 434, (3R,4S)-1-[(1-methyl-1H-imidazol-4-yl)sulfonyl]-N-[(4-methyl-1,3-thiazol-5-yl)methyl]-4-phenylpyrrolidin-3-amine], the Ki under setting [1] was no more than 10000 nM.

For the compound `Cc1cc(C#N)cc(N[C@@H]2CN(S(=O)(=O)c3cn(C)cn3)C[C@H]2c2ccccc2)c1` (relative stereo) [Example 101, 3-methyl-5-({trans-1-[(1-methyl-1H-imidazol-4-yl)sulfonyl]-4-phenylpyrrolidin-3-yl}amino)benzonitrile], the inhibitory constant (Ki) under setting [1] is no more than 1000 nM.

Consider `Cn1cnc(S(=O)(=O)N2C[C@H](Nc3ccc4ccsc4c3)[C@@H](c3ccc(F)cc3)C2)c1` [Example 677, (3R,4S)-N-(1-benzothiophen-6-yl)-4-(4-fluorophenyl)-1-[(1-methyl-1H-imidazol-4-yl)sulfonyl]pyrrolidin-3-amine], for which, under setting [1], the Ki was no more than 1000 nM.

On to `Cn1cnc(S(=O)(=O)N2C[C@@H](C(=O)NCc3cc(C(F)(F)F)ccn3)[C@H](c3ccc(F)cc3)C2)c1` (relative stereo) [Example 635, Trans-4-(4-fluorophenyl)-1-[(1-methyl-1H-imidazol-4-yl)sulfonyl]-N-{[4-(trifluoromethyl)pyridin-2-yl]methyl}pyrrolidine-3-carboxamide], for which, under setting [1], the Ki is no more than 1000 nM.

In the case of `CCC(C)C(C)CN[C@H]1CN(S(=O)(=O)c2cn(C)cn2)C[C@@H]1c1ccccc1` (stereo partly drawn) [Example 561, (3R,4S)-N-(2,3-dimethylpentyl)-1-[(1-methyl-1H-imidazol-4-yl)sulfonyl]-4-phenylpyrrolidin-3-amine], the Ki under setting [1] was no more than 1000 nM.

Consider `CCS(=O)(=O)N1C[C@@H](Nc2cccc(C#N)c2)[C@H](c2ccccc2)C1` (relative stereo) [Example 131, 3-{[trans-1-(ethylsulfonyl)-4-phenylpyrrolidin-3-yl]amino}benzonitrile], for which, under setting [1], the Ki is greater than 10000 nM.

With `Cc1nc(N[C@H]2CN(S(=O)(=O)c3cn(C)cn3)C[C@@H]2c2ccccc2)nn1C` [Example 575, 1,5-dimethyl-N-{(3R,4S)-1-[(1-methyl-1H-imidazol-4-yl)sulfonyl]-4-phenylpyrrolidin-3-yl}-1H-1,2,4-triazol-3-amine], the Ki under setting [1] is no more than 10000 nM.

Regarding `Cc1noc(C)c1S(=O)(=O)N1CC(Nc2ccc(F)c(F)c2)C(c2ccccc2)C1` (stereo not drawn) [Example 513, N-(3,4-difluorophenyl)-1-[(3,5-dimethyl-1,2-oxazol-4-yl)sulfonyl]-4-phenylpyrrolidin-3-amine], the Ki under setting [1] was greater than 10000 nM.
